Measured values: paper PMC11555231 (Nature Communications, 2024)
Blank lines part the entries; values can stand above or below the molecule they belong to. Bridge positions count the residues as written; N and C are the ends. Square brackets hold non-standard residues; d marks the D form. Peptide text beside a SMILES is read from it.

Assays:
hPADI4-stable mES cells = test: High content microscopy of citrullinated histone H3 (H3Cit) in hPADI4-stable mES cells; format: cell-based, mouse; details: KSR/2i 3 h, Fig. S7B
Procedure: HaLo-GFP-mito HeLa cells were grown in DMEM (Gibco) supplemented with 10% foetal bovine serum (FBS), penicillin/streptomycin (100 µg/ml) and puromycin (1 µg/ml) at 37 °C, 5% CO2. HaLo-GFP-mito HeLa cell line[82] was profiled by short tandem repeat analysis (STR) and tested negative for mycoplasma by the Cell Services Technology Platform at the Francis Crick Institute. E14 –mouse embryonic stem cells (Cambridge Stem Cell Institute, UK) were cultured in plates coated with 1% gelatine in GMEM supplemented with 10% foetal calf serum (FCS) batch-tested for ES cell culture (Gibco), 0.1 mM non-essential amino acids, 2 mM L-glutamine, 1 mM sodium pyruvate, 0.1 mM β-mercaptoethanol and 50 ng/mL leukaemia inhibitory factor (LIF) (ESGRO, Millipore). For PADI4 activation, cells were cultured in GMEM containing 10% knockout serum replacement (KSR, Life Technologies), 1% FCS batch-tested for ES cell culture (Gibco), 0.1 mM non-essential amino acids, L-glutamine, 1 mM sodium pyruvate, 0.1 mM β-mercaptoethanol, 50 ng/mL LIF (ESGRO, Millipore), 1 μM PD0325901 (AxonMedChem) and 3 μM CHIR99021 (AxonMedChem). For the generation of E14 mES stably expressing human PADI4 (hPADI4-stable), human PADI4 cDNA was inserted into ES E14 cells using the piggyBac transposon system. The Gateway system was used to clone human PADI4 into the piggyBac vector using primers PADI4_AttB1_F and PADI4_AttB2_R (Table S4). pPB-CAG-CTRL (empty vector) or pPB-CAG-hPADI4 vectors […] were transfected with the piggyBac transposase (pPBase) expression vector, pCAGPBase […], by lipofection according to the manufacturer’s instructions (Lipofectamine 2000, Invitrogen). E14 cells constitutively expressing the hygromycin resistance gene and human PADI4 were selected and expanded in media containing […] hygromycin.
E14 cells were seeded onto 96-well PerkinElmer cell carrier ultra plates (Phenoplates) coated with 0.1% gelatine, at 25,000 cells per well and grown overnight at 37 °C, 5% CO2. Outer wells were excluded but medium was added to minimise any edge effects. […]

hPADI4 [1] = molecular target: T1, hPADI4 (Homo sapiens, UniProt Q9UM07); test: COLDER assay, activation of PADI4 (calcium titration at fixed peptide, or peptide titration at 0.1 mM CaCl2); format: biochemical; details: 30 µM peptide
T1 construct: PADI4 (residues 1–663); Avi-Tag (unbiotinylated); made in house; host or cells: E. coli BL21(DE3) without BirA
T1 sequence (Q9UM07 whole entry, the tested form may be a part): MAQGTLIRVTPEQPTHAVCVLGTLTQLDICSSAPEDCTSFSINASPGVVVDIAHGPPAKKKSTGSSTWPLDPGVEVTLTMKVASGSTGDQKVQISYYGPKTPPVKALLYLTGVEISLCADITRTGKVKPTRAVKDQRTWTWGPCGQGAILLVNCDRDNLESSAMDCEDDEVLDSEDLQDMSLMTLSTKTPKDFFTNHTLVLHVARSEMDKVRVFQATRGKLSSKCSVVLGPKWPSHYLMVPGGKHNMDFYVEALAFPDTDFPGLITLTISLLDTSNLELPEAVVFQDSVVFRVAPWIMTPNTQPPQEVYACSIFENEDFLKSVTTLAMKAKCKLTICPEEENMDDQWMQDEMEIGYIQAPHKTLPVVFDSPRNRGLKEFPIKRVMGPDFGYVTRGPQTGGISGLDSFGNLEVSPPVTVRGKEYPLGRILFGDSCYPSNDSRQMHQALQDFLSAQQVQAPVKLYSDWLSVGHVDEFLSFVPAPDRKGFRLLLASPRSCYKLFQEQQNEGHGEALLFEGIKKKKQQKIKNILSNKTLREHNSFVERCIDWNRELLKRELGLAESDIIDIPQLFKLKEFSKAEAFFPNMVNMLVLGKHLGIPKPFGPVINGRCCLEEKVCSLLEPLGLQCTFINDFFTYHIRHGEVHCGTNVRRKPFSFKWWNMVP
Procedure: (§1) PADI4 activity was assessed using the COLDER assay[43] that measures the formation of urea-containing compounds (e.g. citrulline). The reaction was carried out in a 96-well plate with a final volume of 50 µl. His-PADI4 (50 nM) was incubated with different concentrations of peptides (100 µM to 0.3 nM) in the presence of CaCl2 (from 10 mM to 0.001 mM as specified) for 10 min. The reaction was started by the addition of 10 mM N^α-Benzoyl-L-arginine ethyl ester hydrochloride (BAEE, Merck). After 30 min, the reaction was quenched with EDTA (50 mM final concentration). For colour development, 200 µl of COLDER solution, consisting of 1 volume of solution A (80 mM diacetyl monoxime/2,3-butanedione monoxime (Merck) and 2 mM thiosemicarbazide (Acros Organics)) and 3 volumes of solution B (3 M H3PO4, 6 M H2SO4 and 2 mM NH4Fe(SO4)2) were added to each well and the mixture was heated at 95 °C for 15 min. After cooling to RT, absorbance at 540 nm was measured, and citrulline concentration was determined using a standard curve of citrulline standards. All studies were performed within the linear range of PADI4 activity, and data analysis was performed using Prism GraphPad (Dotmatics). Data are presented as the average ± standard error of the mean from at least two independent replicates.

hPADI4 [2] = molecular target: T1, hPADI4; test: COLDER assay, inhibition of PADI4 at 10 mM CaCl2 (substrate BAEE); format: biochemical; details: COLDER, 10 mM CaCl2, peptide 10–0.0003 µM
Procedure: as §1

[3] = test system: hPADI4 expressing mES cells; test: Cytotoxicity by live cell imaging with Incucyte Cytotox Green Dye
Procedure: Live cell imaging was performed using an Incucyte® imaging system (Sartorius), using Incucyte® Cytotox Green Dye as per the manufacturer’s instructions.
E. Assessment of cytotoxicity by live cell imaging with Incucyte® Cytotox
Green Dye, as a measure for cell death. hPADI4 expressing mES cells treated with 1 µM
Assessment of cytotoxicity by live cell imaging with Incucyte® Cytotox Green Dye, as a read-
vehicle (0.1%), and imaged for 48 h.

HaLo-GFP-mito HeLa cells = test: Chloroalkane penetration assay (CAPA); format: in vitro ADME; details: for CP50: 4 h in Opti-MEM, 37 °C, chase HaLo-Tag TMR ligand 5 µM 15 min, mean ± SEM of three independent experiments; for CP50 at 4 °C relative to 37 °C: peer review response
Procedure: Following the addition of chloroacetyl-NHS to the N-terminal amino group, Cys(mmt) was selectively deprotected using 1% TFA, 5% triisopropylsilane in DCM (30 min, RT). Peptides were then cyclised on resin using 2% diisopropylethylamine in DMF overnight. Following cyclisation, Lys(ivDde) was deprotected using 2% hydrazine in DMF. The resin was then washed (3 x DCM, 3 x DMF) before on-resin coupling of chloroalkane carboxylic acid was performed on the lysine side chain using Hexafluorophosphate Azabenzotriazole Tetramethyl Uronium / diisopropylethylamine in DMF for 2 h. Global deprotection and purification were then carried out as described above. Chloroalkane carboxylate was synthesised as previously described.
CAPA assays were performed following the protocol published in ref. [51]. In brief, 40,000 HaLo- GFP-mito HeLa cells were seeded in a 96-well plate. Twenty-four hours later, cells were treated with different concentrations of chloroalkane-tagged peptides (100 µM to 200 nM for PADI4_3 and PADI4_3i and 50 µM to 100 nM for PADI4_11 and PADI4_11i) for 4 h in Opti-MEM. Media containing peptides was then removed, and cells were incubated with Opti-MEM (Gibco) for 15 min. After that time, the wash was removed, and cells were chased with HaLo-Tag TMR ligand (5 µM, Promega) in Opti-MEM for 15 min. The ligand was then removed, and cells were incubated with Opti-MEM for 30 min. Cells were then trypsinised, resuspended in phosphate-buffered saline (PBS) with 0.5% FBS and analysed using a benchtop flow cytometer (MACSQuant® VYB Flow cytometer Milteny Biotec). For each well, 10000 GFP positive single cells were analysed (gating workflow shown in Supplementary Fig. 18), and TMR mean fluorescence was normalised against a positive control (cells treated with HaLo-Tag TMR ligand but no peptide) and a negative control (non-treated cells). Analysis was performed using FlowJo (LCC) software and Prism GraphPad (Dotmatics). Data were presented as the average ± standard error of three independent replicates.

[4] = CAPA, chloroalkane-tagged peptide, 4 °C, flow cytometry, mean ± SEM of two (PADI4_3) or three (PADI4_11) independent experiments
[5] = CAPA, chloroalkane-tagged peptide, flow cytometry

SMILES: NC(=O)[C@H](CCCN=C(N)CCl)NC(=O)c1ccccc1 [Cl-amidine, reference compound]
mean H3Cit intensity with increasing doses of inhibitor (hPADI4-stable mES cells): dose-response read-outs

change in K50(Ca2+) (in words) (hPADI4 [1]): little change | K50(Ca2+) of PADI4 in presence of peptide (hPADI4 [1]; Fig. 4A, COLDER, CaCl2 10–0.003 mM, mean ± SEM of three independent replicates): 0.359 ± 0.026 mM | PADI4 inhibition (in words) (hPADI4 [2]): No PADI4 inhibition was observed
SMILES: CC[C@H](C)[C@@H]1NC(=O)[C@H](CCCNC(=N)N)NC(=O)[C@H](Cc2ccc(O)cc2)NC(=O)[C@H](Cc2ccccc2)NC(=O)[C@@H](Cc2ccc(O)cc2)NC(=O)CSC[C@@H](C(=O)NCC(N)=O)NC(=O)[C@H](CCC(N)=O)NC(=O)[C@H](Cc2ccc(O)cc2)NC(=O)[C@H](CC(N)=O)NC(=O)[C@@H]2CCCN2C(=O)[C@H](Cc2ccc(O)cc2)NC(=O)[C@H](Cc2c[nH]c3ccccc23)NC(=O)[C@H](Cc2ccccc2)NC(=O)CNC1=O [PADI4_1] ({CH2CO}-[dY]FYRIGFWYPNYQCG-NH2; thioether N-14)

SMILES: N=C(N)NCCC[C@@H]1NC(=O)[C@H](Cc2ccc(O)cc2)NC(=O)[C@H](Cc2c[nH]cn2)NC(=O)[C@H](Cc2c[nH]cn2)NC(=O)[C@H](CC(=O)O)NC(=O)[C@H](CCCNC(=N)N)NC(=O)[C@@H](Cc2ccc(O)cc2)NC(=O)CSC[C@@H](C(=O)NCC(N)=O)NC(=O)[C@H](Cc2ccc(O)cc2)NC(=O)[C@H](CCCCN)NC(=O)[C@@H]2CCCN2C(=O)[C@H](Cc2c[nH]cn2)NC1=O [PADI4_3] ({CH2CO}-[dY]RDHHYRHPKYCG-NH2; thioether N-12)
cytotoxicity ([3]; 1 µM peptide, imaged for 24h): No cytotoxicity was observed | CP50 at 4 °C (HaLo-GFP-mito HeLa cells; CAPA at 4C, run 220915, in µM (unit assumed)): 11.21 | CP50 at 4 °C (HaLo-GFP-mito HeLa cells; CAPA at 4C, run 240501, in µM (unit assumed)): 8.235 | CP50 at 4 °C (HaLo-GFP-mito HeLa cells; [4]): 9.7 ± 2.1 µM | CP50 (HaLo-GFP-mito HeLa cells; [5]): 1.4 ± 0.1 µM | CP50 at 4 °C relative to 37 °C (HaLo-GFP-mito HeLa cells; CAPA): 7 times

SMILES: CC(C)C[C@H](NC(=O)[C@H](CCC(N)=O)NC(=O)[C@H](CC(C)C)NC(=O)[C@@H](NC(=O)[C@H](CCC(N)=O)NC(=O)[C@H](CCCNC(=N)N)NC(=O)[C@H](Cc1ccc(O)cc1)NC(=O)[C@H](CCCNC(=N)N)NC(=O)[C@@H]1CSCC(=O)N[C@@H](Cc2ccc(O)cc2)C(=O)N[C@@H](CCC(=O)O)C(=O)N[C@@H](CO)C(=O)N1)C(C)C)C(N)=O [PADI4_11] ({CH2CO}-YESCRYRQVLQL-NH2; thioether N-4)
cytotoxicity, live cell imaging of cell death ([3]; 25µM peptide, 48 h): not toxic to the cells | CP50 at 4 °C (HaLo-GFP-mito HeLa cells; [4]): 10.8 ± 4.7 µM | CP50 (HaLo-GFP-mito HeLa cells; [5]): 3.1 ± 1.2 µM | CP50 at 4 °C relative to 37 °C (HaLo-GFP-mito HeLa cells; CAPA): 4 times
